Some results are limits rather than exact numbers.

The target of one assay is T1, CD73 (Homo sapiens, UniProt P21589).
T1 sequence (P21589 27-549): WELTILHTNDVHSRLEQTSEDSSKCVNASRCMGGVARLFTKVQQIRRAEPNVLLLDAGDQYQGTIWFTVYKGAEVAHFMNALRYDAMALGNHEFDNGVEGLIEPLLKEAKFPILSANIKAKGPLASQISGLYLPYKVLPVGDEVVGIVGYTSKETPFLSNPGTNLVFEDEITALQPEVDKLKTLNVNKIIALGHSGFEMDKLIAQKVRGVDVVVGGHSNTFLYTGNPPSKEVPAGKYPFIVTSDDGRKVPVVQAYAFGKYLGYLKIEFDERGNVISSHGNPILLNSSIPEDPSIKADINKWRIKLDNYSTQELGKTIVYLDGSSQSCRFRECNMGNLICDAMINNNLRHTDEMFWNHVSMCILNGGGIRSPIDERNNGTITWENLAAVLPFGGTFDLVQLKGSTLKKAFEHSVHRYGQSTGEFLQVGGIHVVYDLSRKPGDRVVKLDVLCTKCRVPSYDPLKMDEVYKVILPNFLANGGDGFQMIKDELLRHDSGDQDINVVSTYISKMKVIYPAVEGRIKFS
The experiment in a line: Example A1: Biochemical Assay (CD73 inhibition, Malachite Green detection of AMP hydrolysis). Conditions: Biochemical IC50, CD73 0.3208 nM, AMP 15 μM, Tris-HCl pH 7.4, Malachite Green, absorbance 620 nm. On the procedure:
Example A1: Biochemical Assay
Assay Reaction Conditions
• Assay Volume: 70 μl • Reaction Volume: 50 μl • CD73: 0.3208 nM • AMP: 15 μM • Assay Buffer: 2 5 mM Tris-HCL, pH 7.4, 0.01% Brij-35, 0.01% BSA, 5 mM MgCl2 Assay Procedure:
Made dose titration of testing compounds in assay buffer, 10 points ½ log titrations in duplicates starting at 100 μM.
Added 25 μl of CD73 to each well for a final concentration of […].
Incubated at RT for 15 min.
Added 25 μl of AMP to each well for a final concentration of 15 μM.
Incubated at RT for 10 min.
Added 10 μl of Malachite Green Reagent A, incubate at RT for 10 min.
Added 10 μl of Malachite Green Reagent B, incubate at RT for 45 min.
Read the Absorbance on Envision plate reader using excitation filter: Cy5 […].
The ability of the compounds disclosed herein to inhibit CD73 activity was quantified and the respective IC50 values were determined. Table 1 provides the biochemical IC50 values of compounds disclosed herein.
By IC50 is commonly meant the midpoint of a concentration-inhibition curve. `O=P(O)(O)C[P@](=O)(OC[C@H]1O[C@@H](n2nnc3c(NCc4ccccc4Cl)nc(Cl)nc32)[C@H](O)[C@@H]1O)Oc1ccccc1` [Example 32, (((S)-(((2R,3S,4R,5R)-5-(5-chloro-7-((2-chlorobenzyl)amino)-3H-[1,2,3]triazolo[4,5-d]pyrimidin-3-yl)-3,4-dihydroxytetrahydrofuran-2-yl)methoxy)(phenoxy)phosphoryl)methyl) phosphonic acid] yielded an IC50 of more than 1000 nM.

Staying with this assay, now noted: CD73 0.3208 nM, AMP 15 μM, Tris-HCl pH 7.4, Malachite Green, absorbance 620 nm; read-out: Biochemical IC50.
As to `O=P(O)(O)CP(=O)(O)OC[C@H]1O[C@@H](n2nnc3c(N4CCC[C@@H]4c4ccccc4)nc(Cl)nc32)[C@H](O)[C@@H]1O` [Example 17, (((((2R,3S,4R,5R)-5-(5-chloro-7-((R)-2-phenylpyrrolidin-1-yl)-3H-[1,2,3]triazolo[4,5-d]pyrimidin-3-yl)-3,4-dihydroxytetrahydrofuran-2-yl)methoxy)(hydroxy)phosphoryl)methyl) phosphonic acid], the IC50 fell in the range of 100 to 1000 nM.

Consider `CN(c1nc(Cl)nc2c1nnn2[C@@H]1O[C@H](COP(=O)(O)CP(=O)(O)O)[C@@H](O)[C@H]1O)[C@H]1CCc2ccccc21` [Example 18, (((((2R,3S,4R,5R)-5-(5-chloro-7-(((S)-2,3-dihydro-1H-inden-1-yl)(methyl)amino)-3H-[1,2,3]triazolo[4,5-d]pyrimidin-3-yl)-3,4-dihydroxytetrahydrofuran-2-yl)methoxy)(hydroxy)phosphoryl)methyl) phosphonic acid], for which the half-maximal inhibitory concentration (IC50) is less than 100 nM.

As for `CN(c1nc(Cl)nc2c1nnn2[C@@H]1O[C@H](COP(=O)(O)CP(=O)(O)O)[C@@H](O)[C@H]1O)[C@@H]1CCc2ccccc21` [Example 19, (((((2R,3S,4R,5R)-5-(5-chloro-7-(((R)-2,3-dihydro-1H-inden-1-yl)(methyl)amino)-3H-[1,2,3]triazolo[4,5-d]pyrimidin-3-yl)-3,4-dihydroxytetrahydrofuran-2-yl)methoxy)(hydroxy)phosphoryl)methyl) phosphonic acid], the IC50 was less than 100 nM.

Turning to `O=P(O)(O)CP(=O)(O)OC[C@H]1O[C@@H](n2nnc3c(N[C@H]4CCc5ccccc54)nc(Cl)nc32)[C@H](O)[C@@H]1O` [Example 20, (((((2R,3S,4R,5R)-5-(5-chloro-7-(((S)-2,3-dihydro-1H-inden-1-yl)amino)-3H-[1,2,3]triazolo[4,5-d]pyrimidin-3-yl)-3,4-dihydroxytetrahydrofuran-2-yl)methoxy)(hydroxy)phosphoryl)methyl) phosphonic acid], the IC50 was less than 100 nM.

Take `CN(Cc1ccccc1Cl)c1nc(Cl)nc2c1nnn2[C@@H]1C[C@H](COP(=O)(O)CP(=O)(O)O)[C@@H](O)[C@H]1O` [Example 21, (((((1R,2R,3S,4R)-4-(5-chloro-7-((2-chlorobenzyl)(methyl)amino)-3H-[1,2,3]triazolo[4,5-d]pyrimidin-3-yl)-2,3-dihydroxycyclopentyl)methoxy)(hydroxy)phosphoryl)methyl)phosphonic acid]: the IC50 is less than 100 nM.

As for `CN(Cc1ccccc1)c1nc(Cl)nc2c1nnn2[C@@H]1O[C@H](COP(=O)(O)CP(=O)(O)O)C[C@H]1O` [Example 22, (((((2S,4R,5R)-5-(7-(benzyl(methyl)amino)-5-chloro-3H-[1,2,3]triazolo[4,5-d]pyrimidin-3-yl)-4-hydroxytetrahydrofuran-2-yl)methoxy)(hydroxy)phosphoryl)methyl)phosphonic acid], the IC50 was 100 to 1000 nM.

Take `O=P(O)(O)CP(=O)(O)OC[C@@H]1C[C@@H](O)[C@H](n2nnc3c(NCc4ccccc4Cl)nc(Cl)nc32)O1` [Example 23, (((((2S,4R,5R)-5-(5-chloro-7-((2-chlorobenzyl)amino)-3H-[1,2,3]triazolo[4,5-d]pyrimidin-3-yl)-4-hydroxytetrahydrofuran-2-yl)methoxy)(hydroxy)phosphoryl)methyl)phosphonic acid]: the IC50 was less than 100 nM.

For the molecule `COP(=O)(CP(=O)(O)O)OC[C@H]1O[C@@H](n2nnc3c(N(C)[C@H]4CCc5ccccc54)nc(Cl)nc32)[C@H](O)[C@@H]1O` (stereo partly drawn) [Example 24, (((((2R,3S,4R,5R)-5-(5-Chloro-7-(((S)-2,3-dihydro-1H-inden-1-yl)(methyl)amino)-3H-[1,2,3]triazolo[4,5-d]pyrimidin-3-yl)-3,4-dihydroxytetrahydrofuran-2-yl)methoxy)(methoxy)phosphoryl)methyl)phosphonic acid], the IC50 was less than 100 nM.

For `CCOP(=O)(CP(=O)(O)O)OC[C@H]1O[C@@H](n2nnc3c(NCc4ccccc4Cl)nc(Cl)nc32)[C@H](O)[C@@H]1O` (stereo partly drawn) [Example 25, (((((2R,3S,4R,5R)-5-(5-chloro-7-((2-chlorobenzyl)amino)-3H-[1,2,3]triazolo[4,5-d]pyrimidin-3-yl)-3,4-dihydroxytetrahydrofuran-2-yl)methoxy)(ethoxy)phosphoryl)methyl) phosphonic acid], the IC50 is 100 to 1000 nM.

In the case of `COP(=O)(CP(=O)(O)O)OC[C@H]1O[C@@H](n2nnc3c(NCc4ccccc4Cl)nc(Cl)nc32)[C@H](O)[C@@H]1O` (stereo partly drawn) [Example 26, (((((2R,3S,4R,5R)-5-(5-chloro-7-((2-chlorobenzyl)amino)-3H-[1,2,3]triazolo[4,5-d]pyrimidin-3-yl)-3,4-dihydroxytetrahydrofuran-2-yl)methoxy)(methoxy)phosphoryl)methyl) phosphonic acid], the IC50 lay in the range of 100 to 1000 nM.

Take `CO[P@](=O)(CP(=O)(O)O)OC[C@H]1O[C@@H](n2nnc3c(NCc4ccccc4Cl)nc(Cl)nc32)[C@H](O)[C@@H]1O` [Example 27, (((R)-(((2R,3S,4R,5R)-5-(5-Chloro-7-((2-chlorobenzyl)amino)-3H-[1,2,3]triazolo[4,5-d]pyrimidin-3-yl)-3,4-dihydroxytetrahydrofuran-2-yl)methoxy)(methoxy)phosphoryl)methyl)phosphonic acid]: the IC50 lay in the range of 100 to 1000 nM.

Regarding `CO[P@@](=O)(CP(=O)(O)O)OC[C@H]1O[C@@H](n2nnc3c(NCc4ccccc4Cl)nc(Cl)nc32)[C@H](O)[C@@H]1O` [Example 28, (((S)-(((2R,3S,4R,5R)-5-(5-chloro-7-((2-chlorobenzyl)amino)-3H-[1,2,3]triazolo[4,5-d]pyrimidin-3-yl)-3,4-dihydroxytetrahydrofuran-2-yl)methoxy)(methoxy)phosphoryl)methyl)phosphonic acid], the 50% inhibitory concentration (IC50) is 100 to 1000 nM.

With `O=P(O)(O)CP(=O)(OCc1ccccc1)OC[C@H]1O[C@@H](n2nnc3c(NCc4ccccc4Cl)nc(Cl)nc32)[C@H](O)[C@@H]1O` (stereo partly drawn) [Example 29, (((benzyloxy)(((2R,3S,4R,5R)-5-(5-chloro-7-((2-chlorobenzyl)amino)-3H-[1,2,3]triazolo[4,5-d]pyrimidin-3-yl)-3,4-dihydroxytetrahydrofuran-2-yl)methoxy)phosphoryl)methyl)phosphonic acid], the concentration for half-maximal inhibition (IC50) was less than 100 nM.

Turning to `O=P(O)(O)CP(=O)(OCC1CC1)OC[C@H]1O[C@@H](n2nnc3c(NCc4ccccc4Cl)nc(Cl)nc32)[C@H](O)[C@@H]1O` (stereo partly drawn) [Example 30, (((((2R,3S,4R,5R)-5-(5-chloro-7-((2-chlorobenzyl)amino)-3H-[1,2,3]triazolo[4,5-d]pyrimidin-3-yl)-3,4-dihydroxytetrahydrofuran-2-yl)methoxy) (cyclopropylmethoxy)phosphoryl)methyl) phosphonic acid], the IC50 was less than 100 nM.
